In patent US20110230476A1, “PI3 KINASE INHIBITORS AND USES THEREOF” (AVILA THERAPEUTICS, INC., priority 2009, published 2011):

Assays:
PI3Kγ (p120γ) = target: T1, PI3Kγ (p120γ) (Homo sapiens, UniProt P48736); assay: HTRF assay, potency against active PI3Kγ; format: biochemical; settings: [ATP]=50 μM, [di-C8-PIP2]=10 μM, 30 min pre-incubation, read-out: PI3Kγ Inhibition
T1 construct: purchased BPS Bioscience (San Diego, Calif.) or Millipore (Billerica, Mass.)
Text: Homogeneous Time Resolved Fluorescence (HTRF) Assay Protocol for Potency Assessment Against the Active Forms of PI3Kα, PI3Kβ, and PI3Kγ
The protocol below describes an end-point, competition-binding HTRF assay used to measure inherent potency of test compounds against active PI3Kα (p110α/p85α), PI3Kβ (p110β/p85α), and PI3Kγ (p120γ) enzymes. The mechanics of the assay platform are best described by the vendor (Millipore, Billerica, Mass.) on their website at the following URL: www.millipore.com/coa/tech1/74jt4z.
Briefly, Stop solution (Stop A, #33-007 and Stop B, #33-009; 3:1 ratio) and Detection Mix (from DMC, #33-015 with DMA, #33-011 and DMB, #33-013; 18:1:1 ratio) were prepared as recommended by the manufacturer about 2 hrs prior to use. Additionally, 1× reaction buffer (from 4× buffer stock# 33-003), 1.4× stocks of PI3Kα, PI3Kβ, and PI3Kγ enzymes from BPS Bioscience (San Diego, Calif.) or Millipore (Billerica, Mass.) with di-C8-PIP2 lipid substrate (#33-005), and a 4×ATP solution (#A7699 Sigma/Aldrich; St. Louis, Mo.) were prepared in 1× reaction buffer. 15 μL of PI3K enzymes and lipid substrate mix were pre-incubated in a Corning (#3573) 384-well, black, non-treated microtiter plate (Corning, N.Y.) for 30 min at 25° C. with a 0.5 μL volume of 50% DMSO and serially diluted compounds prepared in 50% DMSO. Lipid kinase reactions were started with the addition of 5 μL of ATP solution, mixed for 15 sec on a rotary plate shaker and incubated for 30-60 minutes at 25° C. Next, reactions were stopped with a 5 μL addition of Stop solution immediately followed by a 5 μL volume of Detection Mix. Stopped reactions were equilibrated for 1 and 18 hrs at room temperature and read in a Synergy^4 plate reader from BioTek (Winooski, Vt.) at λex330-80/λem620-35 and λem665-7.5. At the conclusion of each assay, the HTRF ratio from fluorescence emission values for each well was calculated and % Inhibition determined from averaged controls wells (+/−PI3K enzyme). % Inhibition values for each compound were then plotted against inhibitor concentration to estimate IC50 from log [Inhibitor] vs Response, Variable Slope model in GraphPad Prism from GraphPad Software (San Diego, Calif.).
[Reagent] used in optimized protocol: • [p110α/p85α]=0.5-1.5 nM, [ATP]=50 μM, [di-C8—PIP2]=10 μM • [p110β/p85α]=0.75 nM, [ATP]=50 μM, [di-C8—PIP2]=10 μM • [p120γ]=2-2.5 nM, [ATP]=50 μM, [di-C8—PIP2]=10 μM • (ATP KMapp for both enzymes was estimated to be 40-70 μM)

PI3Kα (p110α/p85α) = target: T2, PI3Kα (p110α/p85α) (Homo sapiens, UniProt P42336); assay: HTRF assay, potency against active PI3Kα; format: biochemical; settings: HTRF; [ATP]=50 μM, [di-C8-PIP2]=10 μM; 30 min pre-incubation; read-out: PI3Kα Inhibition
T2 construct: purchased BPS Bioscience (San Diego, Calif.) or Millipore (Billerica, Mass.)
Summary of the method: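 Active p110/p85α lipid kinase reactions were started with ATP and run 30-60 minutes at 25 °C, then stopped and developed with HTRF detection mix. HTRF ratio converted to % inhibition against ±enzyme controls; IC50 from log[inhibitor] vs response, variable slope.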

T1 sequence (P48736 whole entry): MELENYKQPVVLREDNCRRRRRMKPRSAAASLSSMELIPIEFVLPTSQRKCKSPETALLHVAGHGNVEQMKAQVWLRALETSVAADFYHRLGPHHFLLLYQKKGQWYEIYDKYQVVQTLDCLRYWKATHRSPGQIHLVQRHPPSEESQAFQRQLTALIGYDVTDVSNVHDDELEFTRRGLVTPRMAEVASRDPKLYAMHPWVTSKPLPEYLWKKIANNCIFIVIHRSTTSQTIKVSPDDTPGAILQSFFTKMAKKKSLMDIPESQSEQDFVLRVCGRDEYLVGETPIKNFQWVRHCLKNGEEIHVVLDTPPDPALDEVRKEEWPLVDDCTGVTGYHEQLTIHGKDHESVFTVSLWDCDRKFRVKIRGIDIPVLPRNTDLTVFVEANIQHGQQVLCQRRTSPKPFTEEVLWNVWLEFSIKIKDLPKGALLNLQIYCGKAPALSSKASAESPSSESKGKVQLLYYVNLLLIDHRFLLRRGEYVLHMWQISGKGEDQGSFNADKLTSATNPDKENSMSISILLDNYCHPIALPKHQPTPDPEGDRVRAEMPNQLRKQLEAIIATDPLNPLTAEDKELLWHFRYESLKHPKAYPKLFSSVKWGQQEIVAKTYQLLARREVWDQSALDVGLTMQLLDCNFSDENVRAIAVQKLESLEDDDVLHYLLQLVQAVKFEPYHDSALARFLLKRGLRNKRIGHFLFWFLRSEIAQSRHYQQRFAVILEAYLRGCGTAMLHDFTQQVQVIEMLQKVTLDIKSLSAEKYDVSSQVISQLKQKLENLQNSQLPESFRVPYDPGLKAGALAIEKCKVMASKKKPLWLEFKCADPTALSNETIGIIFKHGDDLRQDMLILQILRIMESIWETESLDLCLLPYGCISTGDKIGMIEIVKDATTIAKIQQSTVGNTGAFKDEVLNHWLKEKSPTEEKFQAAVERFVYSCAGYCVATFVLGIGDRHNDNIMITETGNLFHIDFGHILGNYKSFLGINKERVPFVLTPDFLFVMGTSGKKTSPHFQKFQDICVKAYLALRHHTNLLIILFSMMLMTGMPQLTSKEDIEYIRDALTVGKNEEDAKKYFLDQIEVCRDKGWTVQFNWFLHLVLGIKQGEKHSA
T2 sequence (P42336 whole entry): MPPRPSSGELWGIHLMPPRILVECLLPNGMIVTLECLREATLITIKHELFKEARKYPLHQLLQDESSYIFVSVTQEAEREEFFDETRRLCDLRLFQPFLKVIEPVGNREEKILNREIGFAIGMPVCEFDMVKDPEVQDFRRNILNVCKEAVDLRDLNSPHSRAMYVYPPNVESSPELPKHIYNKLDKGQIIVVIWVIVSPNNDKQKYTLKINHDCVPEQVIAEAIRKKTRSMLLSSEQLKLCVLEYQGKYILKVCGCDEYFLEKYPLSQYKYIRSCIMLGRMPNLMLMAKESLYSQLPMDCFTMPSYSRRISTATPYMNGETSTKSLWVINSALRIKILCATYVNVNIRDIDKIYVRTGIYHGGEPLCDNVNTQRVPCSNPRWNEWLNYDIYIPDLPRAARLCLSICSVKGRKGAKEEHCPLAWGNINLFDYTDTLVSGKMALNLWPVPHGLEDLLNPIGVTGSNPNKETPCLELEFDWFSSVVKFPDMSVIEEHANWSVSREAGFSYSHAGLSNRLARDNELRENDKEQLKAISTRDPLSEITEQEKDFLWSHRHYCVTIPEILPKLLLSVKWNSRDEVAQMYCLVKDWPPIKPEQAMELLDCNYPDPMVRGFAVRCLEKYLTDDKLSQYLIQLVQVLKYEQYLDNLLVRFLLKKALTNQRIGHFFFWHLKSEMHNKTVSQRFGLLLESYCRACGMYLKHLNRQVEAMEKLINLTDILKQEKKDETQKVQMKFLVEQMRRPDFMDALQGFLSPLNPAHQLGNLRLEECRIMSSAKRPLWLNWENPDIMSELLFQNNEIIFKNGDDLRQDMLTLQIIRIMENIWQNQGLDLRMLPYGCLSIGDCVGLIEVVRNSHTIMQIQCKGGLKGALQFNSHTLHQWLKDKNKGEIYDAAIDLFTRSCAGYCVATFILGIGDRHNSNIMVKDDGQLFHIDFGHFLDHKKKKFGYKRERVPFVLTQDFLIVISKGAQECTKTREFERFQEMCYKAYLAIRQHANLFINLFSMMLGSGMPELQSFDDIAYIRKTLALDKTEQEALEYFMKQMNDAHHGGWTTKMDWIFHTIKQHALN
T2 sequence (P27986 whole entry partner): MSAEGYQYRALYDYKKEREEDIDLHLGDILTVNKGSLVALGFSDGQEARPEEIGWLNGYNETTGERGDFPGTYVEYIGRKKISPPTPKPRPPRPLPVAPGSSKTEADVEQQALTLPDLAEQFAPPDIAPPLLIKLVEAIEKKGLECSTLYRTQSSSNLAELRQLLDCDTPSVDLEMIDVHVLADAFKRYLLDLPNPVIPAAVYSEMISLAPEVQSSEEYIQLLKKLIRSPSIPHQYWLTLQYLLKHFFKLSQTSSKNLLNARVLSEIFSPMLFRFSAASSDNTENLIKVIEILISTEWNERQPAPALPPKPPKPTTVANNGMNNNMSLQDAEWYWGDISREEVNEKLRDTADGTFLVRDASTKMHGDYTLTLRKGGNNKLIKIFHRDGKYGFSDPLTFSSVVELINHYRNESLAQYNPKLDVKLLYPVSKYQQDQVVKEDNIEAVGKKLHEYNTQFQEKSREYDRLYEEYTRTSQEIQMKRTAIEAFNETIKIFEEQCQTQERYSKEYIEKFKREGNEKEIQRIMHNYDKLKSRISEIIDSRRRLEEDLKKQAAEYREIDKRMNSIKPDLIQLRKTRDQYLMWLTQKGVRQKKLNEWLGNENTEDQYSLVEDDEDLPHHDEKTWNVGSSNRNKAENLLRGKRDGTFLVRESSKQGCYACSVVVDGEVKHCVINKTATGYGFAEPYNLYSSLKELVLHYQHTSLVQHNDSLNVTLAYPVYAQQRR

Structure (SMILES)	IC50 (PI3Kγ (p120γ))	IC50 (PI3Kα (p110α/p85α))
C/C=C/C(=O)CCC(=O)NCCS(=O)(=O)N1CCN(Cc2cc3nc(-c4cccc5[nH]ncc45)nc(N4CCOCC4)c3s2)CC1 [II-a-23, (E)-N-(2-(4-((2-(1H-indazol-4-yl)-4-morpholinothieno[3,2-d]pyrimidin-6-yl)methyl)piperazin-1-ylsulfonyl)ethyl)-4-oxohept-5-enamide]	> 1000 nM	100 to 1000 nM
CN(C/C=C/C(=O)CCC(=O)N1CCN(Cc2cc3nc(-c4cccc5[nH]ncc45)nc(N4CCOCC4)c3s2)CC1)C(=O)OC(C)(C)C [II-a-24]	> 1000 nM	10 to 100 nM
C=CC(=O)N1Cc2ccc(-c3cc4nc(-c5cccc(O)c5)nc(N5CCOCC5)c4s3)cc2C1 [II-a-27, 1-(5-(2-(3-hydroxyphenyl)-4-morpholinothieno[3,2-d]pyrimidin-6-yl)isoindolin-2-yl)prop-2-en-1-one]	> 1000 nM	100 to 1000 nM
C=CC(=O)N1CCN(C(=O)C2CCN(Cc3cc4nc(-c5cccc6[nH]ncc56)nc(N5CCOCC5)c4s3)CC2)CC1 [II-a-31, 1-(4-(1-((2-(1H-indazol-4-yl)-4-morpholinothieno[3,2-d]pyrimidin-6-yl)methyl)piperidine-4-carbonyl)piperazin-1-yl)prop-2-en-1-one]	> 1000 nM	100 to 1000 nM
C=CC(=O)NCC(=O)NCC(=O)N1CCN(Cc2cc3nc(-c4cccc5[nH]ncc45)nc(N4CCOCC4)c3s2)CC1 [II-a-32, N-(2-(2-(4-((2-(1H-indazol-4-yl)-4-morpholinothieno[3,2-d]pyrimidin-6-yl)methyl)piperazin-1-yl)-2-oxoethylamino)-2-oxoethyl)acrylamide]	> 1000 nM	100 to 1000 nM
C=CC(=O)N1CCN(C(=O)C2CCN(Cc3cc4nc(-c5cccc(O)c5)nc(N5CCOCC5)c4s3)CC2)CC1 [II-a-34, (1-((2-(3-hydroxyphenyl)-4-morpholinothieno[3,2-d]pyrimidin-6-yl)methyl)piperidin-4-yl)(4-acryloyl-piperazin-1-yl)methanone]	> 1000 nM	100 to 1000 nM
C=CC(=O)NCC(=O)N1CCN(Cc2cc3nc(-c4cccc(O)c4)nc(N4CCOCC4)c3s2)CC1 [II-a-38, N-(2-(4-((2-(3-hydroxyphenyl)-4-morpholinothieno[3,2-d]pyrimidin-6-yl)methyl)piperazin-1-yl)-2-oxoethyl)acrylamide]	> 1000 nM	10 to 100 nM
C=CC(=O)N(C)Cc1cc2nc(-c3cccc(O)c3)nc(N3CCOCC3)c2s1 [II-a-39, N-((2-(3-hydroxyphenyl)-4-morpholinothieno[3,2-d]pyrimidin-6-yl)methyl)-N-methylacrylamide]	> 1000 nM	10 to 100 nM
C/C=C/C(=O)CCC(=O)N(C)Cc1cc2nc(-c3cccc(O)c3)nc(N3CCOCC3)c2s1 [II-a-40, (E)-N-((2-(3-hydroxyphenyl)-4-morpholinothieno[3,2-d]pyrimidin-6-yl)methyl)-N-methyl-4-oxohept-5-enamide]	100 to 1000 nM	10 to 100 nM
CC(C)=CC(=O)CCC(=O)NCC(=O)N1CCN(Cc2cc3nc(-c4cccc5[nH]ncc45)nc(N4CCOCC4)c3s2)CC1 [II-a-41, N-(2-(4-((2-(1H-indazol-4-yl)-4-morpholinothieno[3,2-d]pyrimidin-6-yl)methyl)piperazin-1-yl)-2-oxoethyl)-6-methyl-4-oxohept-5-enamide]	> 1000 nM	> 1000 nM
C=CC(=O)N[C@H]1CC[C@H](C(=O)N(C)Cc2cc3nc(-c4cccc(O)c4)nc(N4CCOCC4)c3s2)CC1 [II-a-42]	> 1000 nM	> 1000 nM
C=CC(=O)N(C)CC(=O)N1CCN(Cc2cc3nc(-c4cccc5[nH]ncc45)nc(N4CCOCC4)c3s2)CC1 [II-a-44, N-(2-(4-((2-(1H-indazol-4-yl)-4-morpholinothieno[3,2-d]pyrimidin-6-yl)methyl)piperazin-1-yl)-2-oxoethyl)-N-methylacrylamide]	> 1000 nM	> 1000 nM
CC(C)(C)C#CC(=O)CC[C@H](NC(=O)OC(C)(C)C)C(=O)N1CCN(Cc2cc3nc(-c4cccc5[nH]ncc45)nc(N4CCOCC4)c3s2)CC1 [II-a-51, (S)-tert-butyl 1-(4-((2-(1H-indazol-4-yl)-4-morpholinothieno[3,2-d]pyrimidin-6-yl)methyl)piperazin-1-yl)-8,8-dimethyl-1,5-dioxonon-6-yn-2-ylcarbamate]	> 1000 nM	100 to 1000 nM
CC(C)(C)/C=C\C(=O)CC[C@H](NC(=O)OC(C)(C)C)C(=O)N1CCN(Cc2cc3nc(-c4cccc5[nH]ncc45)nc(N4CCOCC4)c3s2)CC1 [II-a-52, (S)-tert-butyl 1-(4-((2-(1H-indazol-4-yl)-4-morpholinothieno[3,2-d]pyrimidin-6-yl)methyl)piperazin-1-yl)-8,8-dimethyl-1,5-dioxonon-6-en-2-ylcarbamate]	> 1000 nM	100 to 1000 nM
CN(C)C/C=C/C(=O)NCC(=O)N1CCN(Cc2cc3nc(-c4cccc5[nH]ncc45)nc(N4CCOCC4)c3s2)CC1 [II-a-56, (E)-N-(2-(4-((2-(1H-indazol-4-yl)-4-morpholinothieno[3,2-d]pyrimidin-6-yl)methyl)piperazin-1-yl)-2-oxoethyl)-4-(dimethylamino)but-2-enamide]	> 1000 nM	100 to 1000 nM
C=CC(=O)N1CCN(C(=O)c2ccc(-c3cc4nc(-c5cccc6[nH]ncc56)nc(N5CCOCC5)c4s3)cc2)CC1 [II-a-57, 1-(4-(4-(2-(1H-indazol-4-yl)-4-morpholinothieno[3,2-d]pyrimidin-6-yl)benzoyl)piperazin-1-yl)prop-2-en-1-one]	> 1000 nM	100 to 1000 nM
C=CC(=O)N1CCN(c2ccc(-c3cc4nc(-c5cccc(O)c5)nc(N5CCOCC5)c4s3)cc2)CC1 [II-a-58, 1-(4-(4-(2-(3-hydroxyphenyl)-4-morpholinothieno[3,2-d]pyrimidin-6-yl)phenyl)piperazin-1-yl)prop-2-en-1-one]	> 1000 nM	10 to 100 nM
C=CC(=O)NCCN1CCN(Cc2cc3nc(-c4cccc5[nH]ncc45)nc(N4CCOCC4)c3s2)CC1 [II-a-59]	> 1000 nM	> 1000 nM
CCCC(=O)CCC(=O)NCC(=O)N1CCN(Cc2cc3nc(-c4cccc5[nH]ncc45)nc(N4CCOCC4)c3s2)CC1 [II^R-a-16]	> 1000 nM	100 to 1000 nM
C/C=C/C(=O)CCC(=O)N1CCN(c2ccnc3ccc(/C=C4\SC(=O)NC4=O)cc23)CC1 [V-2, (Z)-5-((4-(4-((E)-4-oxohept-5-enoyl)piperazin-1-yl)quinolin-6-yl)methylene)thiazolidine-2,4-dione]	> 1000 nM	100 to 1000 nM
C=CC(=O)n1cc(-c2ccc3c(c2)N(c2nc4c(s2)C(=O)NC(C)(C)C4)CCO3)cn1 [VI-1, 2-(6-(1-acryloyl-1H-pyrazol-4-yl)-2H-benzo[b][1,4]oxazin-4(3H)-yl)-6,6-dimethyl-6,7-dihydrothiazolo[5,4-c]pyridin-4(5H)-one]	100 to 1000 nM	> 1000 nM
O=C(/C=C/CNC(=O)CCCC(=O)NCCCOCCOCCOCCCNC(=O)CCCC[C@@H]1SC[C@@H]2NC(=O)N[C@@H]21)CCC(=O)N1CCN(Cc2cc3nc(-c4cccc5[nH]ncc45)nc(N4CCOCC4)c3s2)CC1 [XIV-a-2, N1-((E)-7-(4-((2-(1H-indazol-4-yl)-4-morpholinothieno[3,2-d]pyrimidin-6-yl)methyl)piperazin-1-yl)-4,7-dioxohept-2-enyl)-N5-(15-oxo-19-((3aS,4S,6aR)-2-oxohexahydro-1H-thieno[3,4-d]imidazol-4-yl)-4,7,10-trioxa-14-azanonadecyl)glutaramide]	> 1000 nM	> 1000 nM
